{
  "source": "patent US5821353A",
  "about": "“DNA encoding 1,3 beta-D glucan synthase subunits” (Merck & Co., Inc., priority 1996, dated 1998)",
  "key": {"[1]": {"test_system": "S. cerevisiae YFK007 (wild type)", "assay": "primary screen, zone size on agar", "assay_type": "cell-based, Saccharomyces cerevisiae", "conditions": "20 ng FK506, 10 mcg CsA, 10 mcg L733,560, 20 mcg aculeacin, 20 mcg papulacandin, 48 h", "protocol": "(§1) Each strain is grown at 28°-30° C. in YPAD/10 mM CaCl2 medium with shaking at 220 rpm (to mid or late log phase). The cultures are diluted 1:10 with water, and the OD values of the dilutions are measured at 600 nm (against a blank of YPAD/10 mM CaCl2 similarly diluted 1:10 in water). The OD value is multiplied by 10 to estimate the OD of the culture. Portions (100 ml) of YPAD/10 mM CaCl2 medium containing 1.5% agar, equilibrated at 45° C. in a water bath, are seeded with culture such that the final cell density in the agar would have an OD value of 0.015 (i.e., 3×10^6 cfu/ml; a sample calculation is provided below). The seeded agar is poured into 500 cm^2 Nunc plates. Once the agar plates have solidified, 10 mcL aliquots of samples containing test compounds, such as fermentation extracts, are dissolved in water, 100% methanol or ethanol, or up to 50% DMSO and are placed on each member of the two-plate set in 11 by 8 arrays.\n(§2) The plates are incubated for 48 h at 28°-30° C. Diameters of the zones are read to the outermost edge and recorded in mm. The clarity of the zone is reported as clear (no designation), hazy (h), or very hazy (vh). Very hazy zones are best seen by viewing the plate under an elevated light placed between the assay dish and a dark wall."}, "[2]": {"test_system": "S. cerevisiae YFK532-7C (fks1-1)", "assay": "primary screen, zone size on agar", "assay_type": "cell-based, Saccharomyces cerevisiae", "conditions": "20 ng FK506, 10 mcg CsA, 10 mcg L733,560, 20 mcg aculeacin, 20 mcg papulacandin, 48 h", "protocol": "as §1, §2"}, "[3]": {"test_system": "S. cerevisiae YFK798 (fks1-1 + CN)", "assay": "primary screen, zone size on agar (calcineurin counter screen)", "assay_type": "cell-based, Saccharomyces cerevisiae", "conditions": "20 ng FK506, 10 mcg CsA, 10 mcg L733,560, 20 mcg aculeacin, 20 mcg papulacandin, 48 h", "protocol": "Counter screening strains were devised for identifying calcineurin inhibitors. Overexpression of yeast calcineurin in the fks1-1 mutant (strain YFK798) constitutes the most general of these. […] Glucan synthase inhibitors show neither effect and thus can be distinguished from calcineurin inhibitors.\nas §1, §2"}, "[4]": {"test_system": "S. cerevisiae MY2144 (fks 1-3)", "assay": "MIC, growth inhibition", "assay_type": "cell-based, Saccharomyces cerevisiae", "conditions": "MY2144 (fks 1-3)", "protocol": "(§3) Liquid broth microdilution assay\n(§4) To quantitate the sensitivity of a particular strain of S. cerevisiae to a compound such as FK506, L-733,560, or nikkomycin Z, the following procedure was followed:\n(§5) Dissolve drug of interest at 4× the desired initial concentration. For L-733,560, a 64 mcg/ml solution in sterile SD is prepared. Aliquot 75 mcL of the drug suspension into column 3. Using a multichannel pipettor, transfer 75 mcL from column 3 into column 4, pipet up and down three times to mix, and then transfer 75 mcL from column 4 into column 5. Repeat the serial dilution until column 12 is reached; after mixing, discard 75 mcL to waste.\n(§6) Inoculate each strain in a given row by adding 75 mcL of the inoculum into columns 2 to 12. […] Column 2 serves as the no-drug or 100% growth control. The plate is then incubated overnight at 30° C. without shaking.\n(§7) After approximately 24 hours of incubation, gently agitate the plate to resuspend the cells and read the absorbance at 600 nm wavelength. The % control growth for any given well can be calculated by dividing the absorbance value for that well by the value from column 2 in the same row. If this is done for each column, the data can be plotted as \"Percent control growth\" vs. \"Drug concentration\". The resulting dose-response curve can be used to compare the drug sensitivities of various strains.\n(§8) The data in the following table are the minimum concentration of the various drugs required to inhibit the growth of each the mutants and their parent X2180-1A."}, "S. cerevisiae MY2145": {"test_system": "S. cerevisiae MY2145", "assay": "MIC, growth inhibition", "assay_type": "cell-based, Saccharomyces cerevisiae", "conditions": "MY2145", "protocol": "as §3, §4, §5, §6, §7, §8"}, "S. cerevisiae X2180-1A": {"test_system": "S. cerevisiae X2180-1A", "assay": "MIC, growth inhibition", "assay_type": "cell-based, Saccharomyces cerevisiae", "conditions": "minimum concentration required to inhibit growth", "protocol": "as §3, §4, §5, §6, §7, §8"}, "[5]": {"target": "1,3-beta-D glucan synthase from X2180-1A (Saccharomyces cerevisiae, UniProt P38631)", "sequence (P38631 whole entry)": "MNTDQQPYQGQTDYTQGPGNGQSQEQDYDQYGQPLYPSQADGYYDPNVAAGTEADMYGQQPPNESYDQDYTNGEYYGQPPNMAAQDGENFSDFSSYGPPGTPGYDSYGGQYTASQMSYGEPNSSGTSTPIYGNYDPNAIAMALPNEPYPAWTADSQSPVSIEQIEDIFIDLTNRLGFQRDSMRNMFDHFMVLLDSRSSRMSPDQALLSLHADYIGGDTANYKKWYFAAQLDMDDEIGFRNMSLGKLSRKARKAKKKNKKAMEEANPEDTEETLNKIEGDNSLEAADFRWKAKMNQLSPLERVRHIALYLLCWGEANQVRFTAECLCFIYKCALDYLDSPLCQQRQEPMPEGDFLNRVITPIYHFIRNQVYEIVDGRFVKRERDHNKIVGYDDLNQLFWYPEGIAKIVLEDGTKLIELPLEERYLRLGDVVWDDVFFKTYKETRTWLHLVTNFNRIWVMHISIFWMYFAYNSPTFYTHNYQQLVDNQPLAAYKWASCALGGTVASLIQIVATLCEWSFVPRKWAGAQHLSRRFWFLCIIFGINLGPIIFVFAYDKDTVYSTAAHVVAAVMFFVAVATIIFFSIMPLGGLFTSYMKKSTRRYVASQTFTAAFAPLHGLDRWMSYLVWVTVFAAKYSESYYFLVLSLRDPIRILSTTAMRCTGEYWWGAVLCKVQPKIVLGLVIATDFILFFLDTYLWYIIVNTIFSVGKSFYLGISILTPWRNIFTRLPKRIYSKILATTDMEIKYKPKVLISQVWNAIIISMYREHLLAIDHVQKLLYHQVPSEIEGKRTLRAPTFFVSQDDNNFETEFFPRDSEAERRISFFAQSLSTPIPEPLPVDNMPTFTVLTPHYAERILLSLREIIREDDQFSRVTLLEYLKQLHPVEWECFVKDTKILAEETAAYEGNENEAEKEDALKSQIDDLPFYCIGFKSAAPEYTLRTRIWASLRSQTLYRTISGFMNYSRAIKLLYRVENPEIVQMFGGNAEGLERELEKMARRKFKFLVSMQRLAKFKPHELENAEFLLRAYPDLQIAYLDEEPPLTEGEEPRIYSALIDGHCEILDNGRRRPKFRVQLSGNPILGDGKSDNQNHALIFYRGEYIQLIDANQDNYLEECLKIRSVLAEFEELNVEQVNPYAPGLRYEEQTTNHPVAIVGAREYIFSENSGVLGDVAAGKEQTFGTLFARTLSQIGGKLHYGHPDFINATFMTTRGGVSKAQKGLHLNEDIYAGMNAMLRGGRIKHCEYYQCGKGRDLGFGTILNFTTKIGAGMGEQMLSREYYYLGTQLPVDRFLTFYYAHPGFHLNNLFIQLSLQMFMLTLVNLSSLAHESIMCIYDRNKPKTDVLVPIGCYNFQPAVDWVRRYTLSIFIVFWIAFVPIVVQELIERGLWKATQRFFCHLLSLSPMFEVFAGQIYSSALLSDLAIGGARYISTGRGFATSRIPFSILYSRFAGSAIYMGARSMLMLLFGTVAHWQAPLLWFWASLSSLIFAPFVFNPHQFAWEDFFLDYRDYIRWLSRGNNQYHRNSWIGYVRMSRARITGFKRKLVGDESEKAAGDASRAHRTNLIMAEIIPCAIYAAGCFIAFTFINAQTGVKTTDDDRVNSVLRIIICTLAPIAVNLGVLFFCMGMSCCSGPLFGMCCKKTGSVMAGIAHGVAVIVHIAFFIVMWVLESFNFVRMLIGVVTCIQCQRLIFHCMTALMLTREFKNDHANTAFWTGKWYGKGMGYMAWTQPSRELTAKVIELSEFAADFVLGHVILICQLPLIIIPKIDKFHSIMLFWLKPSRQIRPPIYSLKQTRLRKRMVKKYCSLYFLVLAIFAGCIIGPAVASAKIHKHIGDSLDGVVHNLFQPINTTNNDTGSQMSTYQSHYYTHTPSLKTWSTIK", "sequence (P06780 1-206, further chain)": "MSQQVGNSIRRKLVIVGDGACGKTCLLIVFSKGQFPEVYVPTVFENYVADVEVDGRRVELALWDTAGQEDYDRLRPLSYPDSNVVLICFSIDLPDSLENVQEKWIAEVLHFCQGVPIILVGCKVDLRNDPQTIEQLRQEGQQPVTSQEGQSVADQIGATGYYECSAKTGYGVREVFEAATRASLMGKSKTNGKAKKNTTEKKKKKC", "assay": "1,3-beta-D glucan synthase assay, membrane preparation", "assay_type": "biochemical", "conditions": "membranes of X2180-1A", "protocol": "(§9) Cell free extracts were prepared from mutant and wild type cells grown to logarithmic phase as previously described (Kang and Cabib, PNAS, 83:5808-5812, 1986). After homogenization with glass beads, the unbroken cells and debris were removed by a low speed centrifugation (1,000×gfor 5 min). The supernatant fluids were centrifuged at 100,000×g for 60 min and the pellets were washed with 2.5 ml (per gram of wet cells) of buffer containing 0.05M potassium phosphate (pH 7.5), 0.5 mM DTT, and 1.0 mM PMSF. The washed pellet was resuspended in the same buffer containing 5% glycerol. This served as the microsomal membranes source containing both chitin and glucan synthase enzymatic activities. The standard 1,3-beta-D glucan synthase reaction was initiated by mixing 35 mcg protein in cocktail I, which included TEK buffer (125 mM Tris chloride, pH 7.5, 31 mM KF, and 1 mM EDTA), 25% PBS, pH 7.0, 3.31 mcM GTP-gamma-S, and 0.25% BSA in a total volume of 69 mcL, with cocktail II, which included 4 units alpha-amylase, 25 mcg UDP-glucose, and 1 microCi UDP-^3 H-glucose, in a total volume of 11 mcL. Following 150 minutes of incubation at 30° C., the incorporation of UDP-^[…] into glucan was measured after precipitation with trichloroacetic acid.\n(§10) Crude enzyme preparations associated with cell membranes were tested for glucan and chitin synthesis activities. […]"}, "[6]": {"test_system": "1,3-beta-D glucan synthase from MY2144 (fks 1-3)", "assay": "1,3-beta-D glucan synthase assay, membrane preparation", "assay_type": "biochemical, Saccharomyces cerevisiae", "conditions": "membranes of MY2144 (fks 1-3)", "protocol": "as §9, §10"}, "[7]": {"test_system": "1,3-beta-D glucan synthase from MY2145 (fks 1-4)", "assay": "1,3-beta-D glucan synthase assay, membrane preparation", "assay_type": "biochemical, Saccharomyces cerevisiae", "conditions": "membranes of MY2145 (fks 1-4)", "protocol": "as §9, §10"}},
  "data": [
    {"substance": "dihydropapulacandin [L-687,781]", "values": [
      {"measurement": "Primary Screen Zone size (mm)", "setting": "[1]", "value": "20-22 mm"},
      {"measurement": "Primary Screen Zone size (mm)", "setting": "[2]", "value": "26-28 mm"},
      {"measurement": "Primary Screen Zone size (mm)", "setting": "[3]", "value": "26-28 mm"},
      {"measurement": "MIC", "setting": "[4]", "value": 15, "unit": "µg/mL"},
      {"measurement": "MIC", "setting": "S. cerevisiae MY2145", "value": 5.5, "unit": "µg/mL"},
      {"measurement": "MIC", "setting": "S. cerevisiae X2180-1A", "value": 5.5, "unit": "µg/mL"},
      {"measurement": "IC50", "setting": "[5]", "value": 5.08, "unit": "µg/mL"},
      {"measurement": "IC50", "setting": "[6]", "value": 11.1, "unit": "µg/mL"},
      {"measurement": "IC50", "setting": "[7]", "value": 11.5, "unit": "µg/mL"}
    ]}
  ]
}
